PMC12022973, “Proteomimetic Strategy for the Modulation of Intrinsically Disordered Protein MYC” (Journal of the American Chemical Society, 2025)
Starred links: 1 amine or outer side, 2 acyl side, 3 side chain; linkers in the order of their positions; H or OH if unused. Positions of bridges follow the written chain, without caps; N, C: chain ends. Residues, ends and D or L forms follow the SMILES beside them. Chains are numbered I, II in the order given. X1 = c1cc(C[*:1])ccc1COCc1ccc(C[*:2])cc1

Assay: Serum stability assay in 25% FBS
Type: in vitro ADME
Conditions: 25% fetal bovine serum in RPMI-1640, 37 °C, RP-HPLC C18 at 280 nm, L-tryptophan internal standard, triplicate, read-out: initial peptide remaining intact in serum
Description: Encouraged by the in vitro results, we evaluated the potential of CHD^Max-1 to form a complex with MYC in cellulo. We first assessed the ability of CHDs to resist proteolytic degradation in fetal bovine serum (FBS). We monitored the rate of peptide degradation under the treatment of 25% FBS over 24 h by RP-HPLC, with tryptophan as an internal standard. […] After validating the serum stability of CHD^Max-1, we tested its potential to enter live cells. We chose T24 cells, a bladder cancer cell line, for these studies because these cells express a high level of MYC.[39] We assessed the ability of fluorescein-labeled FITC–CHD^Max-1 to enter T24 cells using confocal microscopy and observed overlapped fluorescein and Hoechst nuclear stain signals, showing internalization of FITC–CHD^Max-1 (Figure 4C).
CD experiments were conducted on an Jasco J-1500 Circular Dichroism spectrometer equipped with a temperature controller using 1 mm length cells and a scan speed of 4.0 nm/min at 298 K. The spectra were averaged over 5 scans with baseline subtraction. […] The concentrations of each peptide were determined by the UV absorption at 280 nm.
Proteolytic stability of CHDMax-1 was assessed in 25% serum by using fetal bovine serum (FBS, Gibco) in Roswell Park Memorial Institute (RPMI)-1640 medium at 37 °C. […] Time points of 0 h, 6 h, and 24 h were analyzed in triplicate. […]

- remaining at 24 h: ~80%
SMILES: CC[C@H](C)[C@H](NC(=O)[C@H](CCCCN)NC(=O)[C@H](CCC(=O)O)NC(=O)[C@H](CCCNC(=N)N)NC(=O)[C@H](CC(C)C)NC(C)=O)C(=O)N[C@@H](C)C(=O)N[C@H](C(=O)N[C@@H](CC(C)C)C(=O)N[C@@H](CCC(N)=O)C(=O)N[C@@H](Cc1c[nH]c2ccccc12)C(=O)N[C@@H](CSCc1ccc(COCc2ccc(CSC[C@H](NC(=O)[C@H](CC(C)C)NC(=O)[C@H](CCC(=O)O)NC(=O)[C@H](CCC(=O)O)NC(=O)[C@@H](NC(=O)[C@H](CCC(=O)O)NC(=O)[C@H](Cc3c[nH]c4ccccc34)NC(=O)[C@H](CCC(N)=O)NC(=O)[C@H](Cc3c[nH]cn3)NC(=O)[C@@H](NC(=O)[C@H](CCC(=O)O)NC(=O)[C@H](CC(N)=O)NC(=O)[C@H](CCCCN)NC(=O)[C@H](CCCNC(=N)N)NC(=O)[C@H](CCCNC(=N)N)NC(=O)[C@H](CC(C)C)NC(C)=O)[C@@H](C)O)[C@@H](C)CC)C(N)=O)cc2)cc1)C(=O)N[C@H](C(=O)N[C@@H](CCC(=O)O)C(=O)N[C@@H](CCC(=O)O)C(=O)N[C@@H](CC(C)C)C(=O)N[C@@H](CCCNC(=N)N)C(=O)N[C@@H](CCCCN)C(N)=O)[C@@H](C)CC)[C@@H](C)O [CHD^Max-1] (I: Ac-LREKIATLQWCIEELRK-NH2 / II: Ac-LRRKNETHQWEIEELC-NH2; linker I:11-II:16 via X1)
